According to paper PMC4886532, “A highly soluble, non-phototoxic, non-fluorescent blebbistatin derivative” (Scientific Reports, 2016):
In brackets after ≈: the same amount, converted by molar mass. Read-outs that look alike come from different tables or passages of the source.

Tests used:
myosin II = details: no reference given; cited from earlier work
zebrafish embryo = system: zebrafish embryo; design: method as in PMID 24954740; details: after 24 hours of incubation; cited from earlier work
[1] = system: cldnb:gfp zebrafish embryos; assay: Posterior lateral line primordium (pLLp) migration; assay type: in vivo, zebrafish (Danio rerio); details: 20 μM, 24 hours of incubation
Procedure: However, the highly fluorescent, dense precipitates of blebbistatin disturb imaging in the GFP channel of the microscope. […] In this experiment, cldnb:gfp zebrafish embryos were imaged by an epifluorescent microscope after 24 hours of incubation in the presence of 20 μM concentrations of the indicated inhibitors (Fig. 4d) in order to detect the effect of myosin II inhibition on the proliferating leading edge of the posterior lateral line primordium (pLLp)[21] and visualize the effect of the precipitates by epifluorescent microcopy. […] In the case of para-aminoblebbistatin treatment, the GFP signal of the migrating pLLp can be visualized clearly, while the precipitates of the two other inhibitors highly disturbed the imaging.

[2] = system: zebrafish skeletal muscle; assay: Fast escape response (C-start), maximal angular velocity; assay type: in vivo, zebrafish (Danio rerio); details: 2 μM
Procedure: (§1) Since the myosin II inhibitors decrease the ATPase activity of SkS1 in vitro, we tested their inhibition on zebrafish skeletal muscle in vivo. We investigated the fast escape response (C-start) reflex of 6 dpf fish evoked by standardized tapping stimuli (Video 1). […] The velocity of the rotating heads of the embryos were quantified (maximal angular velocity) in the absence and in the presence of increasing concentrations of the myosin II inhibitors (2, 5, 10, 20 μM), monitored for 4 hours. The half maximal effective concentration (EC50) values for the inhibition of the maximal angular velocity by the myosin II inhibitors are below 2 μM since even at 2 μM the inhibitory effects were >90% for all inhibitors. We experienced that the inhibitory effect of para-aminoblebbistatin is exerted much slower than that of blebbistatin and para-nitroblebbistatin, probably due to its slower uptake (half inhibitions at […], respectively) (Supplementary Figure 1). To further evaluate the specificity of blebbistatin and its derivatives on different myosin II isoforms, we examined the effect of the inhibitors on 6 dpf (days post fertilization) zebrafish heart muscle in vivo. We monitored heart beating and the amplitude of heart muscle contraction before and after the addition of 20 μM of the inhibitors to the specimens.
(§2) The tapping force was standardized. […] For the cytotoxicity assay, zebrafish embryos were incubated in E3 medium containing 0 μM (Control), 5 μM, 10 μM or 20 μM of para-aminoblebbistatin, para-nitroblebbistatin or blebbistatin in 0.1 vol/vol% final concentration of DMSO and monitored for 70 hours.

[3] = target: T1, Dictyostelium discoideum myosin II motor domain (DdMD) (Dictyostelium discoideum, UniProt P08799); assay: biochemical; details: for IC50: 20 °C
T1 construct: Dictyostelium discoideum myosin II motor domain (DdMD)
T1 sequence (P08799 86-759 limits assumed): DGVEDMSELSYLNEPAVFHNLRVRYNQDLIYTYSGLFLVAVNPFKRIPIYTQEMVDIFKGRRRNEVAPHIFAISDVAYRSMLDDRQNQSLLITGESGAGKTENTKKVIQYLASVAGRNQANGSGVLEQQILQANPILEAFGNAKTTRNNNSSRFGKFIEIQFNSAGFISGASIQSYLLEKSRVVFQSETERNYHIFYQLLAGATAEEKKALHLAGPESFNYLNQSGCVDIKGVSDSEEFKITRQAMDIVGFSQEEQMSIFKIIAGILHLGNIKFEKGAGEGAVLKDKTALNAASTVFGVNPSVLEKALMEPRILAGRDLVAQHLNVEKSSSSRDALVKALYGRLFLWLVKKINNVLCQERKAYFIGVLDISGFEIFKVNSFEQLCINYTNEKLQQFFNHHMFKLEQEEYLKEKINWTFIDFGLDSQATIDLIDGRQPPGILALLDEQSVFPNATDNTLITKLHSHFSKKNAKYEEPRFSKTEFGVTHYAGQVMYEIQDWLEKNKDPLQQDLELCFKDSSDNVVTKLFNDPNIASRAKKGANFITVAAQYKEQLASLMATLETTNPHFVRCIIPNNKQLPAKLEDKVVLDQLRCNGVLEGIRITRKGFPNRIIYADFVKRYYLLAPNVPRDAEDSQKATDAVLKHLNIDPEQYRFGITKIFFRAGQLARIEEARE
Procedure: (§3) Myosin and actin together with the indicated concentration of the inhibitor were pre-incubated for 5 minutes at room temperature and the measurements were initiated with 1 mM ATP. Data were corrected for background ATPase activity of actin. G-actin was prepared accordingly from rabbit skeletal muscle[24] and polymerized by 2 mM MgCl2 for 1 hour at room temperature. Measurements were performed in low salt buffer containing 5 mM HEPES, 2 mM MgCl2, 0.1 mM EGTA and 2 mM DTT at pH 7.2 or assay buffer containing 20 mM HEPES, 40 mM NaCl, 4 mM MgCl2 at pH 7.3 for basal ATPase activity measurements with DdMD.

[4] = Solubility assays in assay buffer (supernatant concentration after centrifugation); details: room temperature
Procedure: 50 μM of the inhibitors were dissolved in assay buffer (see Experimental Procedures) containing 0.1 or 1 vol/vol% DMSO, centrifuged at the indicated times and the concentration of the supernatants were determined at each time point (Fig. 2a,b).
The DMSO content was 1%. […] The experiments were repeated three times.

[5] = target: T2, rabbit skeletal muscle myosin S1 (SkS1) (Oryctolagus cuniculus, UniProt Q28641); assay: Steady state basal ATPase, SkS1; assay type: biochemical; details: 25 °C
T2 construct: SkS1 (rabbit skeletal S1 fragment); from tissue; host or cells: rabbit skeletal muscle
T2 sequence (Q28641 1-844 limits assumed): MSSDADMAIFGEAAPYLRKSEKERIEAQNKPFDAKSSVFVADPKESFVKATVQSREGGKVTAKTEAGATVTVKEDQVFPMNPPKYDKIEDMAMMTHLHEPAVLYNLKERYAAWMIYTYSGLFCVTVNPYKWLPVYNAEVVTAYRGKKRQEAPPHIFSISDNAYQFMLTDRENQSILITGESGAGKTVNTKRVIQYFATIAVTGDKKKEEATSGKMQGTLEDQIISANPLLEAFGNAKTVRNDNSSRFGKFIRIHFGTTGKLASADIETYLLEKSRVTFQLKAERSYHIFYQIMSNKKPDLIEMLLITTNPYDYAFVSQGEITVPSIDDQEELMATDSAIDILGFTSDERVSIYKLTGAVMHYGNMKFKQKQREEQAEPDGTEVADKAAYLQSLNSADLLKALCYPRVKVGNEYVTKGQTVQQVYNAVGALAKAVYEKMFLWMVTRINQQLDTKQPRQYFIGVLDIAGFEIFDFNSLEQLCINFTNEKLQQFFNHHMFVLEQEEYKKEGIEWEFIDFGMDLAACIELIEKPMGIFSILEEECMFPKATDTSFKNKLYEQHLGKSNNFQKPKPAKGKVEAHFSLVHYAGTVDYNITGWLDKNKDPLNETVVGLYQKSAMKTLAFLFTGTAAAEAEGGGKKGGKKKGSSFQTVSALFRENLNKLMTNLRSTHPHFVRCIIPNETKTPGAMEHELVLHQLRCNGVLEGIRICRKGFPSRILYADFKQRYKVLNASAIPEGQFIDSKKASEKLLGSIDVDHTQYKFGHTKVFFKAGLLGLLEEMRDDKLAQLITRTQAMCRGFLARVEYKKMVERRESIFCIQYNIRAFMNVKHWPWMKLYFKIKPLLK
T2 sequence (P02602 whole entry partner, the tested form may be a part): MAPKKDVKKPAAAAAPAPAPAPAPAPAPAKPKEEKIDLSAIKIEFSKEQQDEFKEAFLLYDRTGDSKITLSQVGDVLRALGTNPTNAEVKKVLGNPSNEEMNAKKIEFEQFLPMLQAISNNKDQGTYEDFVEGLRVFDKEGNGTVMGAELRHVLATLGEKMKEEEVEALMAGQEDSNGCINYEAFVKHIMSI

[6] = target: T2, rabbit skeletal muscle myosin S1 (SkS1); assay: Steady state actin activated ATPase, SkS1; assay type: biochemical; details: 45 μM actin, 25 °C
Procedure: as §3, with “[…]. Myosin” for “Myosin”

[7] = system: HeLa Kyoto H2B-mCherry eGFP-α-tubulin cells; assay: Cell growth assay (cell number, cytokinesis)
Procedure: Cells incubated in different concentrations of the inhibitors were counted on each day for three days.

M2 cells = assay: Inhibition of blebbing (blebbing index) of M2 cells; assay type: cell-based, human
Procedure: Next, we compared the non-muscle myosin II inhibition by para-aminoblebbistatin, para-nitroblebbistatin and blebbistatin in human melanoma (M2) and HeLa cells. As blebbistatin acquired its name from its ability to block blebbing of M2 cells, we compared blebbing indices[17] of M2 cells in time, incubated in the three different myosin II inhibitors at different concentrations (Fig. 3c–e). Even 5 μM concentrations of the myosin II inhibitors achieved significant decrease in the blebbing indices of the cells within an hour, whereas higher concentrations of the inhibitors completely stopped blebbing of the cells within >40–60 minutes (10 μM) or >20 minutes (25 and 50 μM).
For blebbing index determination, M2 cells were incubated for 30 minutes in PBS in every case prior to the addition of inhibitors, in order to initiate extensive blebbing. Blebbing of the cells was monitored before as well as after inhibitor addition to the cells. DMSO concentration was 0.1 vol/vol% in all experiments. Blebbing index was calculated by summing the initiated blebs in a 5-minute interval (starting at the indicated time points) on a given standard area[17] (whole cells with similar size, diameter = 12 ± 1 μm) and normalizing it to the blebbing index prior to inhibitor treatment.

zebrafish heart muscle = assay: Heart beating and amplitude of heart muscle contraction; assay type: in vivo, zebrafish (Danio rerio); details: 20 μM, 6 dpf
Procedure: as §1, §2

HeLa cells = assay: Wound healing assay (cell motility); assay type: cell-based, human; details: 20 μM, 24 hours, uncoated glass; 100% = total diameter of the wound; control 30.6 ± 5.4%
Procedure: For wound healing assays, 200 μl of HeLa cells were plated on 35 mm borosilicate glass imaging dishes at 300,000 cells/ml concentrations and incubated for 24 hours. 1 hour prior to wounding, cells were incubated in 20 μM of the different myosin II inhibitors. After one hour, scratches were made with pipette tips in monolayer cultures and the motility of cells for occupying the wound was monitored for 24 hours with a Foculus Digital Camera (IEEE1394). Analysis of cell motility was carried out by ImageJ, by measuring the distance between two lines fitted on the two sides of the approaching cell edges created by the pipette tips.

Structure (SMILES) | IC50 (myosin II) [µM] | Toxicity in live zebrafish embryo tests (zebrafish embryo) | Effect on pLLp migration [1] | Half inhibition time of maximal angular velocity [2] [h] | Maximal inhibition of actin activated ATPase of DdMD [3] | Maximal inhibition of basal ATPase of DdMD [3] | IC50 ([3]; 15 μM actin, read-out: IC50 actin activated ATPase activity of DdMD) [µM] | IC50 ([3]; read-out: IC50 basal ATPase of DdMD) [µM] | Solubility ([4]; 0.1 vol/vol% DMSO in assay buffer) [µM] | Solubility ([4]; 1 vol/vol% DMSO in assay buffer) [µM] | IC50 [5] [µM] | IC50 [6] [µM] | Fold weaker IC50 than blebbistatin's (cell proliferation) ([7]; day 3) | IC50 ([7]; read-out: IC50 of the inhibition of cell proliferation, cell number at day 3) [µM] | Time constant τ of inhibition of blebbing (M2 cells; 5 μM) [min] | Time constant τ of inhibition of blebbing (M2 cells; 10 μM) [min] | Time constant τ of inhibition of blebbing (M2 cells; 25 μM) [min] | Time within which amplitude of contraction and blood circulation dropped drastically (zebrafish heart muscle) | Relative migration of HeLa cells (HeLa cells) [%]
Cc1cc2c(cc1[N+](=O)[O-])N=C1N(c3ccccc3)CCC1(O)C2=O (stereo not shown) [nitroblebbistatin] | 27.5 | – | – | – | – | – | – | – | – | – | – | – | – | – | – | – | – | – | –
Cc1ccc2c(c1)C(=O)[C@]1(O)CCN(c3ccc([N+](=O)[O-])cc3)C1=N2 [para-nitroblebbistatin] | – | negligible | halted pLLp migration | 1.3 | ~ 100% | ~ 100% | 3.4 ± 0.3 | 5.3 ± 1.6 | 3.3 ± 0.1 (≈ 1.11 µg/mL) | 3.6 ± 0.2 (≈ 1.21 µg/mL) | 0.3 ± 0.04 | 0.1 ± 0.004 | 2–3 times | 14.7 ± 4.2 | 21.9 ± 4.6 | 11.7 ± 0.5 | 5.9 ± 0.2 | within the first hour | 53.2 ± 17.6
